In assay [1] the target is PI3Kdelta (Homo sapiens (Human), UniProt O00329). The experiment in a line: HTRF PI3K biochemical assay, delta isoform. The settings on record: 0.3 nM enzyme, 100 uM ATP, 50 uM PIP2; form screened (neutral or TFA salt). (In TR-FRET formats the signal depends on donor and acceptor labels being close together.)
Assay [2] concerns the target PI3Kalpha (Homo sapiens (Human), UniProt P42336). The assay is described as follows: HTRF PI3K biochemical assay, alpha isoform (selectivity versus delta). To be noted: ratio PI3K-alpha IC50 value/PI3K-delta IC50 value.

The structures appear in SMILES notation.

By IC50 is commonly meant the concentration at which inhibition is half-maximal.

Chain of PI3Kalpha (P42336 whole entry, canonical isoform): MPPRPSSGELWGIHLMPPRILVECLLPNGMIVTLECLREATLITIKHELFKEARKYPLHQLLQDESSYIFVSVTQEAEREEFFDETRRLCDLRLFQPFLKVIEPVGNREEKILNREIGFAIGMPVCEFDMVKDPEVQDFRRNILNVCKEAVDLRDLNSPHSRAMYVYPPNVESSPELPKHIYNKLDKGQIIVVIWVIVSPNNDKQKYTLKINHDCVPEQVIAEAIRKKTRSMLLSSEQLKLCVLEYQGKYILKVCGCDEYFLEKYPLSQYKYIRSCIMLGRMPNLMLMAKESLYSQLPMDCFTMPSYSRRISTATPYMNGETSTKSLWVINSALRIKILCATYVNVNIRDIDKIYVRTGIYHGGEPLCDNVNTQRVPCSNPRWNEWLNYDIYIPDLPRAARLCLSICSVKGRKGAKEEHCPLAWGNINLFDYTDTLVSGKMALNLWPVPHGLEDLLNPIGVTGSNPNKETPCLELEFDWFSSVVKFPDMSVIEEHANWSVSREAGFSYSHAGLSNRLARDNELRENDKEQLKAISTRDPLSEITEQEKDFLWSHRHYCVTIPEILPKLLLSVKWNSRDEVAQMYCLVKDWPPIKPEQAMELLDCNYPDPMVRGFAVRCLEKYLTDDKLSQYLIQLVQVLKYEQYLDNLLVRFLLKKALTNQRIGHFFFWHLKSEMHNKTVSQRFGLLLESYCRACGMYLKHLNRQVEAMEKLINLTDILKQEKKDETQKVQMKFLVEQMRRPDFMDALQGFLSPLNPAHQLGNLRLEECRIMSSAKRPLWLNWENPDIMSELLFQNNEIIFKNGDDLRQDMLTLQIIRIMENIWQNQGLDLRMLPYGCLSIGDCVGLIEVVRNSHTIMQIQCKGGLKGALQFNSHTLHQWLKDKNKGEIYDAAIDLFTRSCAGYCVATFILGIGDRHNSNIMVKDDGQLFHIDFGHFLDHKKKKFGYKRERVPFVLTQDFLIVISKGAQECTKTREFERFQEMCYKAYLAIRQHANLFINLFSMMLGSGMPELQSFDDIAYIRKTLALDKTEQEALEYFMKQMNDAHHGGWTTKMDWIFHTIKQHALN
Chain of PI3Kalpha (P27986 whole entry partner, canonical isoform): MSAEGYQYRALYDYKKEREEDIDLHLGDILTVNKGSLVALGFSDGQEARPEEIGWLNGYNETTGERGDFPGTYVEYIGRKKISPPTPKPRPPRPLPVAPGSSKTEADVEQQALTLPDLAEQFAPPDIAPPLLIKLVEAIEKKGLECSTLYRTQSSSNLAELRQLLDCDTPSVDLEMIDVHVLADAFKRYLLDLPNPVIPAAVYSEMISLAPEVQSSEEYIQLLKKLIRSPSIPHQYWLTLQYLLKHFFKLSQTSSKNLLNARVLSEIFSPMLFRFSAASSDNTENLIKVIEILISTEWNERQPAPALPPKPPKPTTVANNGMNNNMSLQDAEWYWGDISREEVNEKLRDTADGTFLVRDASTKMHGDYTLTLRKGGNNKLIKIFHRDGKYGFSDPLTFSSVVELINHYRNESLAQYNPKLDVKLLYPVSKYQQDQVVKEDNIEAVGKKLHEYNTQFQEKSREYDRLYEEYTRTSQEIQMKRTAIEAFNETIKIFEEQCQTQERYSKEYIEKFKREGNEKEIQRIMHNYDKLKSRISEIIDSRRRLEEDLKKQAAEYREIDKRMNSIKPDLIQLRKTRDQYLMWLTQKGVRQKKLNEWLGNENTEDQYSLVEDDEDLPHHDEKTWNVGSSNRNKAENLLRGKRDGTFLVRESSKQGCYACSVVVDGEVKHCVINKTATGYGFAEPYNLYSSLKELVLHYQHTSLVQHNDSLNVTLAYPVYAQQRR
Chain of PI3Kdelta (O00329 whole entry, canonical isoform): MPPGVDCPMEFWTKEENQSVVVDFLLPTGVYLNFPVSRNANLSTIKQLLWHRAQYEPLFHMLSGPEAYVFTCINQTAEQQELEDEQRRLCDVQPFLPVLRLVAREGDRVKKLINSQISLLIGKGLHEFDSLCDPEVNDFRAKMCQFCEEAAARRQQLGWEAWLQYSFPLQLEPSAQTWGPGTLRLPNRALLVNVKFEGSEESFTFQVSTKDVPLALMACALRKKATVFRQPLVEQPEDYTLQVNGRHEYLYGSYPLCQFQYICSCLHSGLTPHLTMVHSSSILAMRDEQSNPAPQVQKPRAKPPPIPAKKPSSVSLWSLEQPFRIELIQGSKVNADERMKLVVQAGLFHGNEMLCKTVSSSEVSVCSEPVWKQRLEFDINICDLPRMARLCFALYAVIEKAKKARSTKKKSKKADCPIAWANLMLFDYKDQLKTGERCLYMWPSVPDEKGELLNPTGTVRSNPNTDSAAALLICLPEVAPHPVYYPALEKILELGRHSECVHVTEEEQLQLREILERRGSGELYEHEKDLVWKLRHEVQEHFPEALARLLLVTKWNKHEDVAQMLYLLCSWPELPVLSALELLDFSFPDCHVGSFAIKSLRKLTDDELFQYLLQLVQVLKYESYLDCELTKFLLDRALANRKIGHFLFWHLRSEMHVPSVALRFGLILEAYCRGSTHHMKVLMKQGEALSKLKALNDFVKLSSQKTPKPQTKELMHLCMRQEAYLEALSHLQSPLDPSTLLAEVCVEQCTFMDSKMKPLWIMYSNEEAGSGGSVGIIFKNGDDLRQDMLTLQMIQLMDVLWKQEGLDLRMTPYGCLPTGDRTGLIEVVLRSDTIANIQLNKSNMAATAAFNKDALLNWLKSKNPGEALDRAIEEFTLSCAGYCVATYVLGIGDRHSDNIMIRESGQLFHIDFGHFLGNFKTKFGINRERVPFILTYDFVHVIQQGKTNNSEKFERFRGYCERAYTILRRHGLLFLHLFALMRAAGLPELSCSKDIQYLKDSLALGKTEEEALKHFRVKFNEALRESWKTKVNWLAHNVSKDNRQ
Chain of PI3Kdelta (P27986 whole entry partner, canonical isoform): as the sequence (P27986 whole entry partner, canonical isoform) above

As for `CCn1c(-c2cnc(C)nc2)nc2c(-c3ccc4c(c3)C(C)(CC(C)C)C(=O)N4)ncnc21` (single isomer, unassigned) [Compound 1-2, 5-(9-Ethyl-8-(2-methylpyrimidin-5-yl)-9H-purin-6-yl)-3-isobutyl-3-methylindolin-2-one], in assay [1], the IC50 was 121 nM. Moreover, the “Relative Selectivity versus PI3Kalpha” value in assay [2] is on record as over 10.

For `CCn1c(-c2cnc(C)nc2)nc2c(-c3ccc4c(c3)C(C)(NCC(C)C)C(=O)N4)ncnc21` (single isomer, unassigned) [Compound 2-66, (R or S)-5-(9-ethyl-8-(2-methylpyrimidin-5-yl)-9H-purin-6-yl)-3-(isobutylamino)-3-methylindolin-2-one], the IC50 in assay [1] is 1 nM. Also, the “Relative Selectivity versus PI3Kalpha” value in assay [2] is reported as over 10.

Turning to `CCn1c(-c2cnc(C)nc2)nc2c(-c3ccc4c(c3)C(C)(N3C[C@@H](C)O[C@@H](C)C3)C(=O)N4)ncnc21` (single isomer, unassigned) [Compound 2-3, (R or S)-3-[(cis)-2,6-dimethylmorpholin-4-yl]-5-[9-ethyl-8-(2-methylpyrimidin-5-yl)-9H-purin-6-yl]-3-methyl-1,3-dihydro-2H-indol-2-one], the IC50 in assay [1] was 145 nM. The “Relative Selectivity versus PI3Kalpha” value in assay [2] is reported as 4.

Take `CCn1c(-c2cnc(C)nc2)nc2c(-c3cnc4c(c3)C(C)(CC(C)C)C(=O)N4)ncnc21` (single isomer, unassigned) [Compound 1-12, 5-(9-ethyl-8-(2-methylpyrimidin-5-yl)-9H-purin-6-yl)-3-isobutyl-3-methyl-1,3-dihydro-2H-pyrrolo[2,3-b]pyridin-2-one]: the IC50 in assay [1] came out at 9 nM. For the same compound, in assay [2], the “Relative Selectivity versus PI3Kalpha” value is over 10.

For `Cc1ncc(-c2nc3c(-c4cnc5c(c4)C(C)(NCC(C)(C)F)C(=O)N5)ncnc3n2C)cn1` (single isomer, unassigned) [Compound 2-59, (S or R)-5-(9-methyl-8-(2-methylpyrimidin-5-yl)-9H-purin-6-yl)-3-((2-fluoro-2-methylpropyl)amino)-3-methyl-1H-pyrrolo[2,3-b]pyridin-2(3H)-one], the IC50 in assay [1] was determined as 2 nM. The “Relative Selectivity versus PI3Kalpha” value in assay [2] is over 10.

As to `CCn1c(-c2cnc(C)nc2)nc2c(-c3ccc4c(c3)C(Cc3ccccc3)NC4=O)ncnc21` (single isomer, unassigned) [Compound 4-9, (R or S)-3-benzyl-5-[9-ethyl-8-(2-methylpyrimidin-5-yl)-9H-purin-6-yl]-2,3-dihydro-1H-isoindol-1-one], in assay [1], the IC50 was determined as 22 nM. Further, the “Relative Selectivity versus PI3Kalpha” value in assay [2] was over 10.

For `CCn1c(-c2cnc(C)nc2)nc2c(-c3ccc4oc(=O)n(C(C)c5ccccc5)c4c3)ncnc21` (single isomer, unassigned) [Compound 5-2, (R or S)-5-[9-ethyl-8-(2-methylpyrimidin-5-yl)-9H-purin-6-yl]-3-(1-phenylethyl)-1,3-benzoxazol-2(3H)-one], the IC50 in assay [1] is 37 nM. In addition, in assay [2], the “Relative Selectivity versus PI3Kalpha” value is recorded as over 10.

With `CCn1c(-c2cnc(C)nc2)nc2c(-c3ccc4c(c3)C(C)(N3CC5(CCO5)C3)C(=O)N4)ncnc21` (single isomer, unassigned) [Compound 2-8, (R or S)-5-[9-ethyl-8-(2-methylpyrimidin-5-yl)-9H-purin-6-yl]-3-methyl-3-(1-oxa-6-azaspiro[3.3]hept-6-yl)-1,3-dihydro-2H-indol-2-one], the IC50 in assay [1] stood at 129 nM. The “Relative Selectivity versus PI3Kalpha” value in assay [2] is recorded as over 10.

For `CCn1c(-c2cnc(C)nc2)nc2c(-c3ccc4c(c3)C(Cc3ccccc3)OC(=O)N4)ncnc21` (single isomer, unassigned) [Compound 4-1, (R or S)-4-benzyl-6-[9-ethyl-8-(2-methylpyrimidin-5-yl)-9H-purin-6-yl]-1,4-dihydro-2H-3,1-benzoxazin-2-one], in assay [1], the concentration for half-maximal inhibition (IC50) stood at 97 nM. The “Relative Selectivity versus PI3Kalpha” value in assay [2] was determined as 2.

In the case of `Cc1ncc(-c2nc3c(-c4ccc5c(c4)C(C)(NCC(C)(C)F)C(=O)N5)ncnc3n2C)cn1` (single isomer, unassigned) [Compound 2-68, (R or S)-3-((2-fluoro-2-methylpropyl)amino)-3-methyl-5-(9-methyl-8-(2-methylpyrimidin-5-yl)-9H-purin-6-yl)indolin-2-one], the concentration for half-maximal inhibition (IC50) in assay [1] was 2 nM. For the same compound, the “Relative Selectivity versus PI3Kalpha” value in assay [2] is reported as over 10.

For `CCn1c(-c2cnc(C)nc2)nc2c(-c3ccc4c(c3)C(C)(N[C@@H](C)C3CCC3)C(=O)N4)ncnc21` (mixture of isomers) [Compound 2-27, 3-{[(1S)-1-cyclobutylethyl]amino}-5-[9-ethyl-8-(2-methylpyrimidin-5-yl)-9H-purin-6-yl]-3(R and S)-methyl-1,3-dihydro-2H-indol-2-one], in assay [1], the IC50 was 13 nM. In assay [2], the “Relative Selectivity versus PI3Kalpha” value is over 10.

`CCn1c(-c2cnc(C)nc2)nc2c(-c3ccc4c(c3)C3(CCCN3S(C)(=O)=O)C(=O)N4C)ncnc21` (single isomer, unassigned) [Compound 3-23, (R or S)-5-(9-ethyl-8-(2-methylpyrimidin-5-yl)-9H-purin-6-yl)-1-methyl-1′-(methylsulfonyl)spiro[indoline-3,2′-pyrrolidin]-2-one]: the IC50 in assay [1] was 6 nM. For the same compound, in assay [2], the “Relative Selectivity versus PI3Kalpha” value is reported as over 10.

Consider `CCn1c(-c2cnc(C)nc2)nc2c(-c3ccc4c(c3)C(C)(Cc3ccccc3)C(=O)N4C)ncnc21` (single isomer, unassigned) [Compound 1-20, 3-Benzyl-5-(9-ethyl-8-(2-methylpyrimidin-5-yl)-9H-purin-6-yl)-1,3-dimethylindolin-2-one], for which, in assay [1], the IC50 was 477 nM. In assay [2], the “Relative Selectivity versus PI3Kalpha” value is on record as 3.

Take `CCn1c(-c2cnc(C)nc2)nc2c(-c3ccc4c(c3)C(C)(N(C)CCOC)C(=O)N4)ncnc21` (racemic) [Compound 2-14, (R and S)-5-[9-ethyl-8-(2-methylpyrimidin-5-yl)-9H-purin-6-yl]-3-[(2-methoxyethyl)(methyl)amino]-3-methyl-1,3-dihydro-2H-indol-2-one]: in assay [1], the IC50 was determined as 46 nM. Also, the “Relative Selectivity versus PI3Kalpha” value in assay [2] was over 10.

Consider `CCn1c(-c2cnc(C)nc2)nc2c(-c3ccc4c(c3)C(C)(CC(C)C)NC4=O)ncnc21` (single isomer, unassigned) [Compound 4-7, (R or S)-5-[9-ethyl-8-(2-methylpyrimidin-5-yl)-9H-purin-6-yl]-3-methyl-3-(2-methylpropyl)-2,3-dihydro-1H-isoindol-1-one], for which the IC50 in assay [1] is 7 nM. In addition, the “Relative Selectivity versus PI3Kalpha” value in assay [2] is reported as over 10.

Consider `CCn1c(-c2cnc(C)nc2)nc2c(-c3ccc4c(c3)C(C)(C3CCOCC3)C(=O)N4)ncnc21` (single isomer, unassigned) [Compound 1-35, 5-(9-Ethyl-8-(2-methylpyrimidin-5-yl)-9H-purin-6-yl)-3-methyl-3-(tetrahydro-2H-pyran-4-yl)indolin-2-one], for which, in assay [1], the IC50 came to 5 nM. Moreover, in assay [2], the “Relative Selectivity versus PI3Kalpha” value is over 10.

In the case of `CCn1c(-c2cnc(C)nc2)nc2c(-c3ccc4[nH]c(=O)n(C(C)C5CC5)c4c3)ncnc21` (single isomer, unassigned) [Compound 5-8, (R or S)-1-(1-cyclopropylethyl)-6-[9-ethyl-8-(2-methylpyrimidin-5-yl)-9H-purin-6-yl]-1,3-dihydro-2H-benzimidazol-2-one], in assay [1], the IC50 amounted to 24 nM. For the same compound, the “Relative Selectivity versus PI3Kalpha” value in assay [2] is recorded as over 10.

Regarding `CCn1c(-c2cnc(C)nc2)nc2c(-c3ccc4c(c3)C(C)(N[C@H](C)C3CC3)C(=O)N4)ncnc21` (mixture of isomers) [Compound 2-11, 3-{[(1R)-1-cyclopropylethyl]amino}-5-[9-ethyl-8-(2-methylpyrimidin-5-yl)-9H-purin-6-yl]-3(R and S)-methyl-1,3-dihydro-2H-indol-2-one], the IC50 in assay [1] came out at 15 nM. The “Relative Selectivity versus PI3Kalpha” value in assay [2] is given as over 10.

With `CCn1c(-c2cnc(C)nc2)nc2c(-c3ccc4c(c3)C(C)(CC(C)C)OC(=O)N4)ncnc21` (single isomer, unassigned) [Compound 4-3, (R or S)-6-[9-ethyl-8-(2-methylpyrimidin-5-yl)-9H-purin-6-yl]-4-methyl-4-(2-methylpropyl)-1,4-dihydro-2H-3,1-benzoxazin-2-one], the concentration for half-maximal inhibition (IC50) in assay [1] was 59 nM. Also, in assay [2], the “Relative Selectivity versus PI3Kalpha” value amounted to 6.

For `CCn1c(-c2cnc(C)nc2)nc2c(-c3ccc4c(c3)C3(CCN(C(C)C)C3)C(=O)N4)ncnc21` (single isomer, unassigned) [Compound 3-36, (R or S)-5-(9-ethyl-8-(2-methylpyrimidin-5-yl)-9H-purin-6-yl)-1′-isopropylspiro[indoline-3,3′-pyrrolidin]-2-one], the IC50 in assay [1] is 26 nM. The “Relative Selectivity versus PI3Kalpha” value in assay [2] is on record as over 10.

`CCn1c(-c2cnc(C)nc2)nc2c(-c3ccc4c(c3)C(C)(N3CC5(CCOC5)C3)C(=O)N4)ncnc21` (racemic) [Compound 2-28, (R and S)-5-[9-ethyl-8-(2-methylpyrimidin-5-yl)-9H-purin-6-yl]-3-methyl-3-(6-oxa-2-azaspiro[3.4]oct-2-yl)-1,3-dihydro-2H-indol-2-one]: the IC50 in assay [1] stood at 49 nM. The “Relative Selectivity versus PI3Kalpha” value in assay [2] is on record as over 10.

In the case of `CCn1c(C(F)F)nc2c(-c3ccc4c(c3)C(C)(Cc3ccccc3)C(=O)N4)ncnc21` (single isomer, unassigned) [Compound 1-23, (R or S)-benzyl-5-(8-(difluoromethyl)-9-ethyl-9H-purin-6-yl)-3-methylindolin-2-one], the IC50 in assay [1] was determined as 27 nM. Besides, in assay [2], the “Relative Selectivity versus PI3Kalpha” value was over 10.

`CCn1c(-c2cnc(C)nc2)nc2c(-c3ccc4c(c3)C(C)(CC(C)(C)O)C(=O)N4)ncnc21` (single isomer, unassigned) [Compound 1-40, 5-(9-Ethyl-8-(2-methylpyrimidin-5-yl)-9H-purin-6-yl)-3-(2-hydroxy-2-methylpropyl)-3-methylindolin-2-one]: the IC50 in assay [1] is 142 nM. Besides, the “Relative Selectivity versus PI3Kalpha” value in assay [2] is on record as over 10.
